This assay has as its target T1, Interstitial collagenase [100-268] (Homo sapiens, UniProt P03956).
T1 construct: 100-268
T1 sequence (P03956 whole entry): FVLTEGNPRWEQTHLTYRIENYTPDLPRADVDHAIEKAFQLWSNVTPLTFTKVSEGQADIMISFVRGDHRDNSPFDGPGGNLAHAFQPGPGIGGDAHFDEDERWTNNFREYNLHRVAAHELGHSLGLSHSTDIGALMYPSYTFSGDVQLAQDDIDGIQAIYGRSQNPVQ
Kind of assay: cd-MMP-1 Activity Assay. The settings on record: pH 7.5. On the procedure:
The activity of cd-MMP-1 was measured using a fluorescence-based assay. It was performed in white 96-well half area microplate (Greiner) in a final volume of 100 μL. […] The reaction was initiated by the addition of 50 μl of quenched fluorogenic peptide substrate: Dnp-Pro-beta-cyclohexyl-Ala-Gly-Cys(Me)-His-Ala-Lys(Nma)-NH2 (final concentration 5 μM). The cd-MMP-1 activity was determined in an Synergy™ 2 Multi-Mode Microplate Reader(BioTek) at an excitation wavelength of 360 nm and an emission wavelength of 460 nm.

Where “and” joins values, the source holds several entries; their conditions need not be identical. Identical values can stand only once.

Regarding `COc1ccc(S(=O)(=O)N2CC(C)(C)CN(S(=O)(=O)c3ccc(OC)cc3)C2C(=O)NO)cc1` [1,3-BIS-(4-METHOXY-BENZENESULFONYL)-5,5-DIMETHYL-HEXAHYDRO-PYRIMIDINE-2-CARBOXYLIC ACID HYDROXYAMIDE], the half-inhibitory concentration (IC50) worked out at 0.013 µM.
Turning to `O=c1c(O)c(-c2cc(O)c(O)c(O)c2)oc2cc(O)cc(O)c12`, the IC50 was determined as 2.92 µM.
Regarding `O=c1c(O)c(-c2ccc(O)cc2)oc2cc(O)cc(O)c12`, the half-inhibitory concentration (IC50) was 1.35 µM and 3.92 µM.
For the molecule `O=c1cc(-c2ccc(O)c(O)c2)oc2cc(O)cc(O)c12` [2-(3,4-dihydroxyphenyl)-5,7-dihydroxy-4H-chromen-4-one], the 50% inhibitory concentration (IC50) amounted to 3.03 µM.
`O=c1c(O)c(-c2ccc(O)cc2O)oc2cc(O)cc(O)c12` [2-(2,4-dihydroxyphenyl)-3,5,7-trihydroxychromen-4-one]: the half-inhibitory concentration (IC50) was 4.85 µM.
As for `CNC(=O)C(CCc1ccccc1)NC(=O)C(CC(=O)NO)CC(C)C` (stereo unspecified), the half-inhibitory concentration (IC50) is 0.01 µM.

For the origin of these results see BindingDB's records for doi:10.3109/14756366.2012.681650 (East China University of Science and Technology, 2013).
